Experimental data reported in PubChem BioAssay (NCI).
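Grown in 96-well plates, cells were treated for 48 hours with each compound at five concentrations. Insufficient inhibition: endpoint recorded as highest concentration tested. GI50: concentration for 50% inhibition of growth. TGI: total growth inhibition.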

What was measured:
Assay in all cases: NCI tumour cell line growth inhibition, 48 h
DU-145 prostate = system: DU-145 prostate
M14 melanoma = system: M14 melanoma
EKVX NSCLC = system: EKVX NSCLC
UACC-62 melanoma = system: UACC-62 melanoma
SK-MEL-5 melanoma = system: SK-MEL-5 melanoma
SNB-75 CNS = system: SNB-75 CNS
SW-620 colon = system: SW-620 colon
MOLT-4 leukemia = system: MOLT-4 leukemia
MDA-MB-231 breast = system: MDA-MB-231 breast
ACHN renal = system: ACHN renal
SK-MEL-2 melanoma = system: SK-MEL-2 melanoma
K-562 leukemia = system: K-562 leukemia
T-47D breast = system: T-47D breast
COLO 205 colon = system: COLO 205 colon
A549 NSCLC = system: A549 NSCLC
NCI-H522 lung = system: NCI-H522 lung
UO-31 renal = system: UO-31 renal
A498 renal = system: A498 renal
SF-268 CNS = system: SF-268 CNS
OVCAR-3 ovarian = system: OVCAR-3 ovarian
BT-549 breast = system: BT-549 breast
MDA-MB-435 = system: MDA-MB-435
OVCAR-5 ovarian = system: OVCAR-5 ovarian
NCI-H460 lung = system: NCI-H460 lung
NCI-H226 lung = system: NCI-H226 lung
KM12 colon = system: KM12 colon
CAKI-1 renal = system: CAKI-1 renal
HOP-92 NSCLC = system: HOP-92 NSCLC
LOX IMVI melanoma = system: LOX IMVI melanoma
SNB-19 CNS = system: SNB-19 CNS
SK-OV-3 ovarian = system: SK-OV-3 ovarian
PC-3 prostate = system: PC-3 prostate
786-0 renal = system: 786-0 renal
HCT-15 colon = system: HCT-15 colon
NCI/ADR-RES ovarian = system: NCI/ADR-RES ovarian
SR leukemia = system: SR leukemia
HT29 colon = system: HT29 colon
SN12C renal = system: SN12C renal
MALME-3M melanoma = system: MALME-3M melanoma
SK-MEL-28 melanoma = system: SK-MEL-28 melanoma
SF-295 CNS = system: SF-295 CNS
RXF 393 renal = system: RXF 393 renal
RPMI-8226 leukemia = system: RPMI-8226 leukemia
U251 CNS = system: U251 CNS
HOP-62 NSCLC = system: HOP-62 NSCLC
HS 578T breast = system: HS 578T breast
SF-539 CNS = system: SF-539 CNS
UACC-257 melanoma = system: UACC-257 melanoma
OVCAR-8 ovarian = system: OVCAR-8 ovarian
IGROV1 ovarian = system: IGROV1 ovarian
HL-60(TB) leukemia = system: HL-60(TB) leukemia
TK-10 renal = system: TK-10 renal
MCF7 breast = system: MCF7 breast
OVCAR-4 ovarian = system: OVCAR-4 ovarian
CCRF-CEM leukemia = system: CCRF-CEM leukemia
HCT-116 colon = system: HCT-116 colon
HCC-2998 colon = system: HCC-2998 colon

## COc1cc(OC)c(S(N)(=O)=O)cc1C(=O)/C=C/c1ccccc1
DU-145 prostate
  GI50: 1.88 µM
  TGI: 13.9 µM
M14 melanoma
  GI50: 7.51 µM
  TGI: 23.8 µM
EKVX NSCLC
  GI50: 14.2 µM
  TGI: 27.6 µM
UACC-62 melanoma
  GI50: 12.2 µM
  TGI: 26.9 µM
SK-MEL-5 melanoma
  GI50: 17.6 µM
  TGI: 32.4 µM
SNB-75 CNS
  GI50: 2.08 µM
  TGI: 7.32 µM
SW-620 colon
  GI50: 2.68 µM
  TGI: 13.4 µM
MOLT-4 leukemia
  GI50: 10.1 µM
  TGI: 43.1 µM
MDA-MB-231 breast
  GI50: 11.9 µM
  TGI: 27 µM
ACHN renal
  GI50: 7 µM
  TGI: 20.1 µM
SK-MEL-2 melanoma
  GI50: 12.6 µM
  TGI: 26.5 µM
K-562 leukemia
  GI50: 1.5 µM
  TGI: 22.3 µM
T-47D breast
  GI50: 2.09 µM
  TGI: 12.1 µM
COLO 205 colon
  GI50: 10.6 µM
  TGI: 24 µM
A549 NSCLC
  GI50: 10.5 µM
  TGI: 22.7 µM
NCI-H522 lung
  GI50: 6.56 µM
  TGI: 20.8 µM
UO-31 renal
  GI50: 4.76 µM
  TGI: 19 µM
A498 renal
  GI50: 16.9 µM
  TGI: 30.7 µM
SF-268 CNS
  GI50: 5.88 µM
  TGI: 22.9 µM
OVCAR-3 ovarian
  GI50: 2.71 µM
  TGI: 13.1 µM
BT-549 breast
  GI50: 2.65 µM
  TGI: 14.1 µM
MDA-MB-435
  GI50: 2.12 µM
  TGI: 12 µM
OVCAR-5 ovarian
  GI50: 13.2 µM
  TGI: 26.7 µM
NCI-H460 lung
  GI50: 1.95 µM
  TGI: 12.5 µM
NCI-H226 lung
  GI50: 10 µM
  TGI: 26.4 µM
KM12 colon
  GI50: 3.31 µM
  TGI: 18.5 µM
CAKI-1 renal
  GI50: 1.86 µM
  TGI: 15.6 µM
HOP-92 NSCLC
  GI50: 2.06 µM
  TGI: 12 µM
LOX IMVI melanoma
  GI50: 0.335 µM
  TGI: 12.4 µM
SNB-19 CNS
  GI50: 14 µM
  TGI: 28.5 µM
SK-OV-3 ovarian
  GI50: 14.4 µM
  TGI: 27.6 µM
PC-3 prostate
  GI50: 5.95 µM
  TGI: 20.6 µM
786-0 renal
  GI50: 4.82 µM
  TGI: 20.8 µM
HCT-15 colon
  GI50: 3.55 µM
  TGI: 20.1 µM
NCI/ADR-RES ovarian
  GI50: 15.5 µM
  TGI: 57.6 µM
SR leukemia
  GI50: 1.73 µM
  TGI: 24.8 µM
HT29 colon
  GI50: 4.02 µM
  TGI: 13.8 µM
SN12C renal
  GI50: 3.49 µM
  TGI: 16.9 µM
MALME-3M melanoma
  GI50: 13.9 µM
  TGI: 29.3 µM
SK-MEL-28 melanoma
  GI50: 12.5 µM
  TGI: 25.3 µM
SF-295 CNS
  GI50: 15.7 µM
  TGI: 30.3 µM
RXF 393 renal
  GI50: 1.9 µM
  TGI: 7.74 µM
RPMI-8226 leukemia
  GI50: 2.98 µM
  TGI: 21.4 µM
U251 CNS
  GI50: 2.92 µM
  TGI: 15.2 µM
HOP-62 NSCLC
  GI50: 9.51 µM
  TGI: 22.6 µM
HS 578T breast
  GI50: 5.89 µM
  TGI: 43.3 µM
SF-539 CNS
  GI50: 2.44 µM
  TGI: 8.98 µM
UACC-257 melanoma
  GI50: 9.96 µM
  TGI: 21.8 µM
OVCAR-8 ovarian
  GI50: 11.3 µM
  TGI: 24.1 µM
IGROV1 ovarian
  GI50: 9.74 µM
  TGI: 27.6 µM
HL-60(TB) leukemia
  GI50: 2.27 µM
  TGI: 23.2 µM
TK-10 renal
  GI50: 12.9 µM
  TGI: 25.8 µM
MCF7 breast
  GI50: 0.97 µM
  TGI: 14.2 µM
OVCAR-4 ovarian
  GI50: 11.8 µM
  TGI: 25.7 µM
CCRF-CEM leukemia
  GI50: 3.93 µM
  TGI: 67.2 µM
HCT-116 colon
  GI50: 1.49 µM
  TGI: 14.8 µM
HCC-2998 colon
  GI50: 12.5 µM
  TGI: 26.2 µM
